From patent US20260240842A1, “METHODS TO PREVENT THERAPY RESISTANCE IN MELANOMA VIA BLOCKING GENOMIC INSTABILITY” (THE REGENTS OF THE UNIVERSITY OF CALIFORNIA, priority 2022, published 2026) come the findings set out here.

The assay has as its system HSR harboring BRAF in M249 cells. Kind of assay: Metaphase DNA-FISH tracking emergence of BRAF HSR. The format is cell-based, human. The following applies: M249, day 31; DNA-PKi and/or PARPi given in combination with BRAFi+MEKi; FIG. 5G. The source says:
FIGS. 5A-5H. Resistance-driver ecDNAs and HSRs dynamically track with resistance and DNA-PKi prevents size-expansion of ecDNAs and CGRs early on MAPKi treatment. FIGS. 5A to 5C, Metaphase DNA-FISH of paired parental and acquired resistant BRAF^V600MUT (5A and 5B) or NRAS^Q61MUT (5C) cell lines without or with drug withdrawal showing ecDNA- or HSR-amplicons harboring BRAF, RAF1 or NRAS. Left, representative images; right, quantifications per cell. Ruler, 15 μm. P values (Unpaired two-tailed Student's t-test): *, p<0.05; **, p<0.01; ***, p<0.001. FIGS. 5D to 5F: Three- (upper) and six-(lower) day MTT assay of indicated cell lines treated with graded concentrations of BRAFi+MEKi (5D and 5E) or MEKi (5F). Cell viability was normalized to respective DMSO/vehicle group. Inner brackets, comparisons between acquired-resistant sub-lines without and with drug withdrawal. Outer brackets, comparisons between acquired-resistant sub-lines and their isogenic parental cell lines. […] FIG. 5G: Representative images (left) and quantification (right) of metaphase DNA-FISH showing HSR harboring BRAF in M249 cells treated with vehicle or BRAFi+MEKi, with or without NU7026 and/or ABT888 for 31 days. […] FIG. 5H: Average total genomic spans of treatment-specific ecDNAs+CGRs in M229 and M245 cell lines (background ecDNA+CGR spans detected in vehicle-treated cells were filtered). […]

Structures are written as SMILES.

For `C[C@]1(c2nc3c(C(N)=O)cccc3[nH]2)CCCN1` [ABT888, veliparib], the “BRAF HSRs early on treatment” value is “suppression”.
On to `O=c1cc(N2CCOCC2)oc2c1ccc1ccccc12` [NU7026], for which the “BRAF HSRs early on treatment” value is reported as “suppression”.
